These are literature values, as cited in US20260232776A1, “COMBINATIONS OF DENDRITIC CELL-BASED VACCINES AND CHECKPOINT INHIBITORS” (Mayo Foundation for Medical Education and Research, priority 2023, published 2026).

The data set relates to p44/p42 MAPK or SAPK/JNK.

Take `C[S+]([O-])c1ccc(-c2nc(-c3ccncc3)c(-c3ccc(F)cc3)[nH]2)cc1` (stereo not shown) [SBA203580, adezmapimod]: the “activity against other MAPKs such as p44/p42 MAPK or SAPK/JNK” value is “little activity”.
